{
  "source": "patent US20160143867A1",
  "about": "“METHODS AND PHARMACEUTICAL COMPOSITIONS FOR TREATING CANCER” (INSERM (INSTITUT NATIONAL DE LA SANTÉ ET DE LA RECHERCHE …, priority 2013, published 2016)",
  "tested_on": "glioma-initiating cells (GICs)",
  "test": "Cell survival of GICs exposed to GHB",
  "conditions": "exposure of GICs to GHB",
  "data": [
    {"smiles": "O=C(O)CCCO", "note": "[GHB, gamma-hydroxybutyrate]", "values": [
      {"measurement": "cell survival", "result": "without affecting cell survival"}
    ]}
  ]
}
